In US20160361252A1, “ANHYDROUS MULTIPHASE GEL SYSTEM” (priority 2005, published 2016):

Test system: DNFB-induced allergic contact dermatitis
Assay: DNFB-induced contact dermatitis in mice (allergic contact dermatitis model)
Type: in vivo, mice (NMRI)
Conditions: ascrolimus applied in the EDR system, 0.1, 0.3, 1.0%, ear homogenates, 24 hours
Source text: Various models can be used in order to determine the effectiveness and bioavailability of active substances as a function of the topical medication used. A suitable pharmacological model within the scope of anti-inflammatory therapy on the skin is represented by the “Irritant contact dermatitis (ICD)” model in mice. In this model, the inflammatory components of eczema are imitated. This inflammatory aspect likewise plays a role in allergic contact dermatitis and atopic dermatitis with the participation of allergen-specific T cells intrinsic to the skin. Therefore, a T-cell-dependent model of allergic contact dermatitis (in reaction to dinitrofluorobenzene, DNFB) can be utilized. Acute and chronic allergic contact dermatitis (ACD) is characterized by a type-1 dominated cytokine profile. Therefore, the ACD model induced by dinitrofluorobenzene (DNFB) was used in order to assess in vivo the activity of the active substance “ascrolimus” (topical immunomodulator). After sensitizing by means of DNFB, edema was produced by subsequent application of the same contact allergens and therefore, a cutaneous infiltration of allergenic T-cells and granulocytes was triggered. The mice (NMRI) were sensitized with 0.5% DNFB on day 0 and day 1. On day 5, the mice were again treated with 0.3% DNFB. […]

ascrolimus was tested, and the “peroxidase activity as a measure for granulocyte infiltration (delta peroxidase, FIG. 5)” value was “significant concentration-dependent inhibition”.
